This note sets out measurements from patent publication US10183918B2, “Oxa-azaspiro compounds having activity against pain” (LABORATORIOS DEL DR. ESTEVE S.A., priority 2015, dated 2019).

pKi: −log10 of the molar value.

This experiment deals with T1, human σ1 receptor (Homo sapiens, UniProt Q99720).
T1 construct: expressed in transfected cells; host or cells: HEK-293 (membranes)
T1 sequence (Q99720 whole entry): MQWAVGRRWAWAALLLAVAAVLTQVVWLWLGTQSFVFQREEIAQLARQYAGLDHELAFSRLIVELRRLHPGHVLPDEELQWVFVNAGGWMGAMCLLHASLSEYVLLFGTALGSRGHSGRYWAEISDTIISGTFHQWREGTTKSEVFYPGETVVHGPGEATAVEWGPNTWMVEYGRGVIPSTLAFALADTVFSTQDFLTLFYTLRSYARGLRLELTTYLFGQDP
The experiment in a line: Human σ1 receptor radioligand assay. The experiment is classed as binding. Conditions: transfected HEK-293 membranes, 5 nM [3H](+)-pentazocine as radioligand. Here is the method: Human σ1 Receptor Radioligand Assay
To investigate binding properties of test compounds to human σ1 receptor, transfected HEK-293 membranes and [^3H](+)-pentazocine (Perkin Elmer, NET-1056), as the radioligand, were used. The assay was carried out with 7 μg of membrane suspension, 5 nM of [^3H](+)-pentazocine in either absence or presence of either buffer or 10 μM Haloperidol for total and non-specific binding, respectively. Binding buffer contained Tris-HCl 50 mM at pH 8. Plates were incubated at 37° C. for 120 minutes. After the incubation period, the reaction mix was then transferred to Multiscreen HTS, FC plates (Millipore), filtered and plates were washed 3 times with ice-cold 10 mM Tris-HCL (pH7.4). Filters were dried and counted at approximately 40% efficiency in a MicroBeta scintillation counter (Perkin-Elmer) using EcoScint liquid scintillation cocktail
On to `CCN1C[C@]2(CC[C@@H](N(C)CCc3ccccc3)CC2)OC(C)(C)C1=O` [Example 56, (6r,9r)-4-ethyl-2,2-dimethyl-9-(methyl(phenethyl)amino)-1-oxa-4-azaspiro[5.5]undecan-3-one], for which the pKi is > 7.00.

Regarding `CN(Cc1ccccc1)[C@H]1CC[C@]2(CC1)CN(c1ccccc1)CC1(CC1)O2` [Example 20, (5r,8r)-N-benzyl-N-methyl-12-phenyl-4-oxa-12-azadispiro[2.1.53]tridecan-8-amine], the pKi was > 7.00.

As for `CCN1C[C@]2(CC[C@H](N(C)Cc3ccccc3)CC2)OCC1=O` [Example 41, (6s,9s)-9-(benzyl(methyl)amino)-4-ethyl-1-oxa-4-azaspiro[5.5]undecan-3-one], the negative logarithm of the Ki (pKi) was > 6.30.

With `CN(CCc1ccccc1)[C@H]1CC[C@@]2(CC1)CN(Cc1ccccc1)CC1(CC1)O2` [Example 67, (5s,8s)-12-benzyl-N-methyl-N-(2-phenylethyl)-4-oxa-12-azadispiro[2.1.5.3]tridecan-8-amine], the pKi is > 7.00.

For `CN(CCc1ccccc1)[C@H]1CC[C@@]2(CC1)CN(c1ccccc1)C(=O)C1(CC1)O2` [Example 9, (5s,8s)-8-(methyl(2-phenylethyl)amino]-12-phenyl-4-oxa-12-azadispiro[2.1.5.3]tridecan-13-one], the negative logarithm of the Ki (pKi) is > 6.30.

For the compound `CCN1CC2(CC2)O[C@]2(CC[C@H](N(C)CCC(C)C)CC2)C1` [Example 35, (5r,8r)-12-ethyl-N-methyl-N-(3-methylbutyl)-4-oxa-12-azadispiro[2.1.5.3]tridecan-8-amine], the pKi was > 6.30.

Take `CN(Cc1ccccc1)[C@H]1CC[C@@]2(CC1)CN(c1ccccc1)CC1(CC1)O2` [Example 19, (5s,8s)-N-benzyl-N-methyl-12-phenyl-4-oxa-12-azadispiro[2.1.5.3]tridecan-8-amine]: the negative logarithm of the Ki (pKi) was > 7.00.

Consider `CCN1CC(C)(C)O[C@]2(CC[C@@H](N(C)CCC(C)C)CC2)C1` [Example 64, (6s,9s)-4-ethyl-N-isopentyl-N,2,2-trimethyl-1-oxa-4-azaspiro[5.5]undecan-9-amine], for which the negative-log Ki (pKi) is > 7.00.

Take `CCN1CC(C)(C)O[C@]2(CC[C@@H](N(C)CCc3ccccc3)CC2)C1` [Example 66, (6s,9s)-4-ethyl-N,2,2-trimethyl-N-phenethyl-1-oxa-4-azaspiro[5.5]undecan-9-amine]: the negative-log Ki (pKi) is > 7.00.

Take `O=C1N(c2ccccc2)C[C@]2(CC[C@H](NCc3ccccc3)CC2)OC12CC2` [Example 10, (5s,8s)-8-(benzylamino)-12-phenyl-4-oxa-12-azadispiro[2.1.5.3]tridecan-13-one]: the pKi is ≤ 6.30.

Regarding `O=C1N(c2ccccc2)C[C@]2(CC[C@@H](NCCc3ccccc3)CC2)OC12CC2` [Example 13], the pKi is ≤ 6.30.

Regarding `CCN1C[C@]2(CC[C@H](N(C)CCC(C)C)CC2)OC2(CC2)C1=O` [Example 28, (5s,8s)-12-ethyl-8-[rnethyl(3-methylbutyl)amino]-4-oxa-12-azadispiro[2.1.5.3]tridecan-13-one], the pKi was > 6.30.

For `CCN1C[C@]2(CC[C@@H](NCc3ccccc3)CC2)OC(C)(C)C1=O` [Example 40, (6r,9r)-9-(benzylamino)-4-ethyl-2,2-dimethyl-1-oxa-4-azaspiro[5.5]undecan-3-one], the negative-log Ki (pKi) is ≤ 6.30.

Take `CCN1CCO[C@]2(CC[C@@H](N(C)CCC(C)C)CC2)C1` [Example 63, (6s,9s)-4-ethyl-N-isopentyl-N-methyl-1-oxa-4-azaspiro[5.5]undecan-9-amine]: the pKi is > 6.30.

Take `CC(C)CCN(C)[C@H]1CC[C@@]2(CC1)CN(C(=O)c1ccccc1)CC1(CC1)O2` [Example 59, ((5s,8s)-8-[isopentyl(methyl)amino]-4-oxa-12-azadispiro[2.1.5.3]tridecan-12-yl)(phenyl)methanone]: the negative-log Ki (pKi) is > 6.30.

Consider `CCN1C[C@]2(CC[C@H](NCc3ccccc3)CC2)OC(C)(C)C1=O` [Example 39, (6s,9s)-9-(benzylamino)-4-ethyl-2,2-dimethyl-1-oxa-4-azaspiro[5.5]undecan-3-one], for which the negative-log Ki (pKi) was ≤ 6.30.

For `CCN1CC2(CC2)O[C@]2(CC[C@H](N(C)Cc3ccccc3)CC2)C1` [Example 18, (5r,8r)-N-benzyl-12-ethyl-N-methyl-4-oxa-12-azadispiro[2.1.5.3]tridecan-8-amine], the pKi was > 6.30.

For the compound `CCN1C[C@]2(CC[C@H](N(C)Cc3ccccc3)CC2)OC(C)(C)C1=O` [Example 43, (6s,9s)-9-(benzyl(methyl)amino)-4-ethyl-2,2-dimethyl-1-oxa-4-azaspiro[5.5]undecan-3-one], the pKi is > 7.00.

Regarding `CCN1C[C@]2(CC[C@@H](N(C)Cc3ccccc3)CC2)OC(C)(C)C1=O` [Example 44, (6r,9r)-9-(benzyl(methyl)amino)-4-ethyl-2,2-dimethyl-1-oxa-4-azaspiro[5.5]undecan-3-one], the pKi was > 6.30.

For the compound `CCN1C[C@]2(CC[C@@H](N(C)Cc3ccccc3)CC2)OCC1=O` [Example 42, (6r,9r)-9-(benzyl(methyl)amino)-4-ethyl-1-oxa-4-azaspiro[5.5]undecan-3-one], the pKi was > 7.00.

In the case of `CC(C)CCN(C)[C@H]1CC[C@]2(CC1)CN(c1ccccc1)CC1(CC1)O2` [Example 32, (5r,8r)-N-rnethyl-N-(3-methylbutyl)-12-phenyl-4-oxa-12-azadispiro[2.1.5.3]tridecan-8-amine], the negative logarithm of the Ki (pKi) is > 7.00.

Consider `O=C1N(c2ccccc2)C[C@]2(CC[C@H](NCCc3ccccc3)CC2)OC12CC2` [Example 11, (5s,8s)-12-phenyl-8-[(2-phenylethyl)amino]-4-oxa-12-azadispiro[2.1.5.3]tridecan-13-one], for which the pKi was > 6.30.

Take `CCN1C[C@]2(CC[C@H](N(C)CC(C)C)CC2)OC2(CC2)C1=O` [Example 33, (5s,8s)-12-ethyl-8-[methyl(2-methylpropyl)amino]-4-oxa-12-azadispiro[2.1.5.3]tridecan-13-one]: the negative-log Ki (pKi) was > 6.30.

On to `CC(C)CCN(C)[C@H]1CC[C@@]2(CC1)CN(c1ccccc1)CC1(CC1)O2` [Example 31, (5s,8s)-N-methyl-N-(3-methylbutyl)-12-phenyl-4-oxa-12-azadispiro[2.1.5.3]tridecan-8-amine], for which the pKi was > 7.00.

In the case of `CCN1CC(C)(C)O[C@]2(CC[C@@H](N(C)CC(C)C)CC2)C1` [Example 65, (6s,9s)-4-ethyl-N-isobutyl-N,2,2-trimethyl-1-oxa-4-azaspiro[5.5]undecan-9-amine], the pKi is > 7.00.

Consider `CN(Cc1ccccc1)[C@H]1CC[C@@]2(CC1)CN(C(=O)c1ccccc1)CC1(CC1)O2` [Example 45, ((5s,8s)-8-[Benzyl(methyl)amino]-4-oxa-12-azadispiro[2.1.5.3]tridecan-12-yl)(phenyl)methanone], for which the negative-log Ki (pKi) is > 7.00.

On to `CCN1C[C@]2(CC[C@@H](N(C)CCC(C)C)CC2)OC2(CC2)C1=O` [Example 27, (5r,8r)-12-ethyl-8-[methyl(3-methylbutyl)amino]-4-oxa-12-azadispiro[2.1.5.3]tridecan-13-one], for which the pKi was > 6.30.

For the compound `CCN1C[C@]2(CC[C@H](N(C)Cc3ccccc3)CC2)OC2(CC2)C1=O` [Example 5, (5s,8s)-8-[benzyl(methyl)amino]-12-ethyl-4-oxa-12-azadispiro[2.1.5.3]tridecan-13-one], the negative logarithm of the Ki (pKi) is > 7.00.

In general, pKi refers to −log10 of the Ki, conventionally taken in molar units. High values mean a low Ki, low ones a high Ki.
